Data: patent publication US20200377477A1, “DEGRADERS OF EGFR AND METHODS OF USE THEREOF” (DANA-FARBER CANCER INSTITUTE, INC., priority 2018, published 2020)
Read-outs that look alike come from different tables or passages of the source.

How the values were obtained:
[1] = target: T1, EGFR T790M/L858R Ba/F3 cell line (Homo sapiens, UniProt P00533, T790M/L858R, cells depend on it); assay: Ba/F3 cell proliferation (MTS assay), EGFR T790M/L858R; assay type: cell-based, murine
T1 construct: The constructs were shuttled into the retroviral vector JP1540 using the BD Creator™ System (BD Biosciences)
T1 sequence (P00533 whole entry T790M/L858R): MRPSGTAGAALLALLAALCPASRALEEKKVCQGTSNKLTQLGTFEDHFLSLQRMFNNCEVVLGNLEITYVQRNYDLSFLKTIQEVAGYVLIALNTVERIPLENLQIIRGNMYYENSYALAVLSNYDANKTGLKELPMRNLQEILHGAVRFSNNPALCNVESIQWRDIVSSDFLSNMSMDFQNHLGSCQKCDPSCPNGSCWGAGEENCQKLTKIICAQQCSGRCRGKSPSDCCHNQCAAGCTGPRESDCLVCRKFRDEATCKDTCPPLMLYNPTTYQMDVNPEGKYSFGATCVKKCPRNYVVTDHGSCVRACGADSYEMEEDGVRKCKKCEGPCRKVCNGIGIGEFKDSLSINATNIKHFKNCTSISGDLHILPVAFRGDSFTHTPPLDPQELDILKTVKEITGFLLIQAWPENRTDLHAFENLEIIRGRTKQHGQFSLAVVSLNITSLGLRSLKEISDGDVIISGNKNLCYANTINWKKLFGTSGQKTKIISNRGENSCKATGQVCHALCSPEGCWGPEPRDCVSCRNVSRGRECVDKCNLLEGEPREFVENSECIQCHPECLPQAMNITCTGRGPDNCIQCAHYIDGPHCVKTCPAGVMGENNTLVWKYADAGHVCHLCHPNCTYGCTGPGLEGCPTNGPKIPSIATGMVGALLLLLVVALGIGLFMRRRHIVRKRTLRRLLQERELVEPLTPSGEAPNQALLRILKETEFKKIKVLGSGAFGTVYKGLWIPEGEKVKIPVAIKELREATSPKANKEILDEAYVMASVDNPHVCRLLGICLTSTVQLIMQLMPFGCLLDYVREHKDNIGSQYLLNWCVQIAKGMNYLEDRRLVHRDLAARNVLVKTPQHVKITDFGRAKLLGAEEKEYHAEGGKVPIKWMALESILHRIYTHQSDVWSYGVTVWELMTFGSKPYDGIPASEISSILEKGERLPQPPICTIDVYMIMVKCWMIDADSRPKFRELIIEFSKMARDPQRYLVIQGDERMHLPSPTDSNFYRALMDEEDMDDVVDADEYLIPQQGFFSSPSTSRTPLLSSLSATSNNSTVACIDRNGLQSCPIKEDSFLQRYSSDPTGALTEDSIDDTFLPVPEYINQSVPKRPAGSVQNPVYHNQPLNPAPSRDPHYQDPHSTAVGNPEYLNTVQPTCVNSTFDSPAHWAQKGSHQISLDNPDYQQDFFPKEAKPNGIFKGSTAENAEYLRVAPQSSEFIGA
Protocol: The EGFR mutant L858R, Del E746_A750, L858R/T790M, DelE746_A750/T790M, L858R/T790M/C797S and Del/T790M/C797S Ba/F3 cells were previously described (Zhou e al., Nature 462, (2009), 1070-1074). All cell lines were maintained in RPMI 1640 (Cellgro; Mediatech Inc., Hemdon, Calif.) supplemented with 10% FBS 100 units/mL penicillin, 100 units/mL streptomycin, and 2 mM glutamine. L858R cells were maintained in ACL-4 media (Invitrogen, Carlsbad, Calif.) supplemented with 5% FBS, 100 units/mL penicillin, 100 units/mL streptonycin, and 2 mM glutamine. The EGFR I941R mutation was introduced via site directed mutagenesis using the Quick Change Site-Directed Mutagenesis kit (Stratagene; La Jolla, Calif.) according to the manufacturer's instructions. All constructs were confirmed by DNA sequencing. The constructs were shuttled into the retroviral vector JP1540 using the BD Creator™ System (BD Biosciences). Ba/F3 cells were infected with retrovirus and according to standard protocols, as described previously (Zhou 2009). Stable clones were obtained by selection in puromycin (2 μg/ml).
Growth and inhibition of growth was assessed by MTS assay and was performed according to previously established methods (Zhou 2009). The MTS assay is a colorimetric method for determining the number of viable cells that is based on the bioreduction of MTS by cells to a formazan product that is soluble in cell culture medium and can be detected spectrophotometrically. […] All experimental points were set up in six wells and all experiments were repeated at least three times. […] The curves were fitted using a non-linear regression model with a sigmoidal dose response.

[2] = target: T2, recombinant EGFR T790M/L858R kinase (Homo sapiens, UniProt P00533, L858R/T790M); assay: HTRF-based EGFR biochemical assay
T2 construct: Constructs spanning residues 696-1022 of the human EGFR; GST (cleaved yes); made in house; host or cells: Sf9 insect cells
T2 sequence (P00533 696-1022 T790M/L858R): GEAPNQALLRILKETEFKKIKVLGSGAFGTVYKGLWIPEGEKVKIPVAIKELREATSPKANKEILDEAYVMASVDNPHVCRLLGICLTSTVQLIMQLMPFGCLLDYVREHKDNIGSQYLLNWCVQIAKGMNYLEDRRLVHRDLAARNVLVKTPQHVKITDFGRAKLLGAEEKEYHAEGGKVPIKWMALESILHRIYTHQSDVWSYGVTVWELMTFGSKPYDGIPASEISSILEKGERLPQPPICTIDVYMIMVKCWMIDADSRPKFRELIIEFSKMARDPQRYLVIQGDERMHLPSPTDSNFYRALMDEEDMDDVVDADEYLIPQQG
Protocol: Constructs spanning residues 696-1022 of the human EGFR (including wild type and L858R, L858R/T790M, T790M, and T790M/V948R mutant sequences) were prepared in a GST-fusion format using the pTriEX system (Novagen) for expression in Sf9 insect cells essentially as described (Yun et al., PNAS 105, 2070-2075 (2008); Yun et al., Cancer Cell 11, 217-227 (2007)). EGFR kinase proteins were purified by glutathione-affinity chromatography followed by size-exclusion chromatography after cleavage with TEV or thrombin to remove the GST fusion partner following established procedures. (Yun 2008; Yun 2007).
EGFR biochemical assays were carried out using a homogeneous time-resolved fluorescence (HTRF) assay as described previously. The reaction mixtures contained 1 μM biotin-Lck-peptide substrate, wild type or mutant EGFR enzyme in reaction buffer (50 mM HEPES pH 7. 1, 10 mM MgCl2, 0.01% BSA, 1 mM TCEP and 0.1 mM Na3VO4) at a final volume of 10 μL. Enzyme concentrations were adjusted to accommodate varying kinase activity and ATP concentrations (0.2-0.4 nM L858R/T790M; or 2-4 nM L858R, or 2-4 nM T790M, or nM WT). All reactions were carried out at room temperature in white ProxiPlate™ 384-well Plus plates (PerkinElmer) and were quenched with 5 μL of 0.2 M EDTA at 60 min. Five μL per well of the detection reagent containing 2.5 ng PT66K (Cis-bio) and 0.05 μg SAXL (Prozyme) were added, and the plates were then incubated at room temperature for 1 hour and read with an EnVision plate reader.

[3] = absence of cetuximab, read-out: Ba/F3 cellular activity (EC50) T790M/L858R
[4] = read-out: Ba/F3 cellular activity (EC50) T790M/L858R + Cetuximab, presence of 1 μg/mL cetuximab

Compound	EC50 [1, 3] [nM]	EC50 [1, 4] [nM]	IC50 [2] [nM]
O=C(CCl)Nc1ccc2c(c1)N(Cc1ccccc1)C(=O)c1cc(-c3ccc4[nH]ccc4c3)ccc1N2 [I-2]	< 250	< 250	≥ 750
O=C1c2cc(Br)ccc2Nc2ccc(F)cc2N1Cc1ccccc1 [I-a, 10-Benzyl-2-bromo-8-fluoro-5,10-dihydro-11H-dibenzo[b,e][1,4]diazepin-11-one]	≥ 750	250 to 500	–
C=CC(=O)Nc1ccc2c(c1)N(Cc1ccccc1)C(=O)c1cc(-c3ccc4[nH]ccc4c3)ccc1N2 [I-1]	≥ 750	500 to 750	≥ 750
C=CC(=O)Nc1ccc2c(c1)N(Cc1ccccc1)C(=O)c1cc(-c3ccc(N4CCNCC4)cc3)ccc1N2 [I-3, N-(10-Benzyl-11-oxo-2-(4-(piperazin-1-yl)phenyl)-10,11-dihydro-5H-dibenzo[b,e][1,4]diazepin-8-yl)acrylamide]	≥ 750	≥ 750	≥ 750
